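Compound exposure: 48 hours, 5 concentrations, 96-well plates. GI50 = concentration required for 50% inhibition of growth. TGI denotes the concentration required for complete inhibition of growth.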
Columns and labels:
Assay in all cases: DTP human tumour cell line panel, 48 h
[1] = test system: SW-620 colon
[2] = test system: HT29 colon
[3] = test system: MDA-MB-231 breast
[4] = test system: SF-295 CNS
[5] = test system: LOX IMVI melanoma
[6] = test system: ACHN renal
[7] = test system: SN12C renal
[8] = test system: 786-0 renal
[9] = test system: SK-MEL-28 melanoma
[10] = test system: SR leukemia

Row | Structure (SMILES) | GI50 [1] [µM] | TGI [1] [µM] | GI50 [2] [µM] | TGI [2] [µM] | GI50 [3] [µM] | TGI [3] [µM] | GI50 [4] [µM] | TGI [4] [µM] | GI50 [5] [µM] | TGI [5] [µM] | GI50 [6] [µM] | TGI [6] [µM] | GI50 [7] [µM] | TGI [7] [µM] | GI50 [8] [µM] | TGI [8] [µM] | GI50 [9] [µM] | TGI [9] [µM] | GI50 [10] [µM] | TGI [10] [µM]
1 | COc1cc2c3c(n(CCCN=[N+]=[N-])c(=O)c2cc1OC)-c1ccc(N(C)C)cc1C3=O | > 100 | > 100 | > 100 | > 100 | > 100 | > 100 | > 100 | > 100 | > 100 | > 100 | > 100 | > 100 | > 100 | > 100 | > 100 | > 100 | > 100 | > 100 | – | –
2 | COc1ccc(Nc2cc(C)nc(N3CCN(c4ccnc5cc(Cl)ccc45)CC3)n2)cc1 | 2.73 | 13.2 | 2.83 | 8.11 | 2.31 | > 100 | 1.28 | 7.68 | 2.39 | 5.96 | – | – | 2.8 | > 100 | 2.61 | > 100 | – | – | 2.68 | > 100
3 | O=C(Nc1ccc(I)cc1F)c1cc(Cl)ccc1O | 0.737 | 12.7 | 3.29 | 27.3 | 0.388 | 4.56 | 1.75 | 3.49 | 0.424 | 2.18 | 0.487 | 10.6 | 0.365 | 4.47 | 2.19 | 7.18 | 0.353 | 1.71 | 0.531 | > 100
4 | Cc1cccc(Nc2cnc(N)nc2N)c1 | – | > 100 | – | > 100 | – | > 100 | – | > 100 | – | > 100 | – | > 100 | – | > 100 | – | > 100 | – | > 100 | – | –
5 | O=C(Nc1ccc(Cl)c(Cl)c1)OCCN1c2ccccc2Sc2ccccc21 | – | > 10 | – | > 10 | – | > 10 | – | > 10 | – | > 10 | – | > 10 | – | > 10 | – | > 10 | – | > 10 | – | > 10
6 | Cc1ccc(-c2nc(N3CCCNCC3)c3oc(-c4ccc(C)cc4)nc3n2)cc1 | 1.66 | 3.2 | 1.49 | 2.85 | 1.69 | 3.11 | 1.86 | 3.54 | 1.86 | 3.46 | 1.75 | 3.13 | 1.61 | 3.06 | 1.76 | 3.25 | 1.93 | 3.51 | 0.213 | 0.575
7 | O=S(=O)(NCCNc1nccc(-c2c(-c3ccc(F)cc3)nc3sccn23)n1)c1ccccc1 | 6.55 | > 100 | 2.31 | > 100 | 16.6 | > 100 | 7.64 | 34.2 | 3.41 | 93.1 | 1.69 | > 100 | 6.86 | > 100 | 4.77 | > 100 | 9.36 | > 100 | 3.46 | > 100
8 | CC(C)COC(=O)c1ccc2[nH]c(O)c(C=Nc3ccc(S(N)(=O)=O)cc3)c2c1 | 0.671 | 3.83 | 1.63 | 5.21 | 0.915 | 6.76 | 1.77 | 8.46 | 0.666 | 4.06 | 0.885 | 5.8 | 1.21 | 7.94 | 1.21 | 4.24 | 1.69 | 4.75 | 0.36 | 6.43
9 | CC(Br)C(=O)Nc1ccc(C(=O)O)c(O)c1 (stereo not drawn) | – | > 100 | – | > 100 | – | > 100 | – | > 100 | – | > 100 | – | > 100 | – | 66.1 | – | > 100 | – | > 100 | – | > 100
10 | Cc1c(Sc2ccccc2)[n+](=O)c2cc(Cl)c(Cl)cc2n1[O-] | 29.5 | 96.1 | 79.9 | > 100 | 35.7 | > 100 | > 100 | > 100 | 18.4 | 36.7 | 20.5 | 41.6 | > 100 | > 100 | 22 | 43.4 | > 100 | > 100 | – | –
11 | ClCc1ccc(Cn2cnc3c(Cl)nc(Cl)nc32)cc1 | 3.79 | 17.3 | 2.9 | > 100 | 1.81 | 3.63 | 7.2 | 19.5 | 2.06 | 4.13 | 2.35 | 5.28 | 7.18 | 20.8 | 14 | 29.5 | 2.69 | 6.99 | – | –
12 | CN(/N=N/c1nc(OCc2ccccc2)c2[nH]cnc2n1)C(=O)Oc1ccc([N+](=O)[O-])cc1 | 9.02 | 26.1 | – | – | 5.78 | 18.6 | 11.1 | 33.6 | 1.14 | 10.8 | – | – | – | – | 8.76 | 23.7 | 12.4 | > 50 | 26.1 | > 50
13 | COc1ccc(OC)c(Nc2nc(-c3c(C)nc4sccn34)cs2)c1 | > 100 | > 100 | > 100 | > 100 | > 100 | > 100 | 41.4 | > 100 | > 100 | > 100 | 38.6 | > 100 | > 100 | > 100 | 32.3 | > 100 | 58.9 | > 100 | – | –
14 | COC(=O)[C@@H](C)C[C@H](Cc1ccccc1)NC(=O)c1csc([C@@H](C[C@H](C(C)C)N(C)C(=O)[C@H](C)NC(=O)[C@H]2CCCCN2C)OC(C)=O)n1 | 0.861 | > 25 | 0.816 | > 25 | 1.24 | > 25 | 3.95 | > 25 | 1.74 | > 25 | – | – | 2.08 | > 25 | 1.05 | > 25 | > 25 | > 25 | 0.452 | > 25
15 | C=C1[C@@H]([C@@]2(C)C=CC(=O)C(C)(C)[C@@H]2CC(=O)OC)CC[C@@]2(C)C(c3ccoc3)OC(=O)[C@H]3O[C@]132 (stereo partly drawn) | – | > 100 | – | > 100 | – | > 100 | – | > 100 | – | > 100 | – | > 100 | – | > 100 | – | > 100 | – | > 100 | – | –

From PubChem BioAssay (NCI)
